{"source": "patent US8735584B2", "about": "(Merck Patent GmbH, priority 2008, dated 2014)", "target": "T1, GST-Aurora A (Homo sapiens, UniProt O14965)", "T1 construct": "N-terminal GST fusion with full length Aurora A (1-403 amino acids); purchased Carna Biosciences 05-101", "T1 sequence (O14965 1-403)": "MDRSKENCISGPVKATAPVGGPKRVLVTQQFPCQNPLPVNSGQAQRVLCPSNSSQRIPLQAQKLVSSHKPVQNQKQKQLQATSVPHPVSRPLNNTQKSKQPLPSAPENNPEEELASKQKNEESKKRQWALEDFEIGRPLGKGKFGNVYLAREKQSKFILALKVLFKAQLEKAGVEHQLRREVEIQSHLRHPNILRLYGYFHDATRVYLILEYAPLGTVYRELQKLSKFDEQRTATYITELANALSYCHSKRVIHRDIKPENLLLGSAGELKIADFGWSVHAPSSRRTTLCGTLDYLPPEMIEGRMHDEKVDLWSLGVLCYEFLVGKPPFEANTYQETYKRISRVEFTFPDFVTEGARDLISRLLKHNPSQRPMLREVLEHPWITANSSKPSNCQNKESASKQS", "assay": "Aurora A IC50, Caliper LC3000 mobility shift assay", "assay_type": "biochemical", "conditions": "LC3000 method; 15 uM ATP (the KM value); read-out: Aurora Kinase A Activity (IC50)", "procedure,_shortened": "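Readout: percent conversion of FITC-LRRASLG (1 uM) to phosphopeptide, resolved electrophoretically on a Caliper LC3000, fitted against inhibitor concentration for IC50. Reaction: N-terminal GST full-length Aurora A, ATP at its KM (15 uM), pH 7.5 HEPES with MgCl2/DTT, 25 C for 90 min.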", "data": [{"compound": "O=c1[nH]c2ncccc2c2cc(Nc3cccc(F)c3)ccc12", "note": "[Example 31, 9-(3-Fluoro-phenylamino)-5H-benzo[c][1,8]naphthyridin-6-one]", "values": [{"measurement": "IC50", "value": "> 100", "unit": "nM"}]}]}
